Data published in patent US20170298406A1, “SALT OF PHENYLGLYCINE METHYL ESTER” (DSM Sinochem Pharmaceuticals Netherlands B.V., priority 2014, published 2017).
Structures can show the parent of a compound that is named as a salt.

Experiment: Solubility of (PGMH)2SO4 in water as a function of temperature (HPLC of filtered supernatant)
Assay type: physicochemical
Conditions: filtrate by HPLC
Excerpt: In the preparation of (PGMH)2SO4 as described in Example 2 separation of the organic phase at pH=4.2 is done while (PGMH)2SO4 is supersaturated. At some point in time, crystallization may start before the organic layer is separated from the aqueous phase. In order to design a process that will avoid crystallization of (PGMH)2SO4 in the presence of organic solvent, and controlled crystallization after separation of the organic phase, solubility of (PGMH)2SO4 as a function of temperature was investigated. The hemi sulfuric acid salt of D-phenylglycine methyl ester (1 g), obtained as described in Example 2 was mixed with water (2 g) at 20° C. and the solid material dissolved. Additional hemi sulfuric acid salt of D-phenylglycine methyl ester (1 g) was added and the mixture was agitated at 20° C. for 25 minutes. Not all solid was dissolved. An aliquot of approximately 0.5 mL of supernatant was filtered, and in the filtrate the concentration of hemi sulfuric acid salt of D-phenylglycine methyl ester was determined by HPLC. The rest of the mixture was stirred at 3° C. Water (2 mL) was added to allow mixing. […] An aliquot of approximately 0.5 mL of supernatant was filtered and in the filtrate the concentration of hemi sulfuric acid salt of D-phenylglycine methyl ester was determined by HPLC.

Solubility in water: hemi sulfuric acid salt of D-phenylglycine methyl ester (g)/kg of solution (T 3 °C, agitated 30 minutes): 268 g/kg of solution | Solubility in water: hemi sulfuric acid salt of D-phenylglycine methyl ester (g)/kg of solution (T 20 °C, agitated 25 minutes): 478 g/kg of solution
Structure (SMILES): COC(=O)[C@H](N)c1ccccc1 [hemi sulfuric acid salt of D-phenylglycine methyl ester]
